US20190298745A1, “COMPOSITION FOR CONTROLLING SECRETION OF PROSTASOMES AND USE THEREOF” (Industrial Cooperation Foundation Chonbuk National, priority 2018, published 2019)
“Also recorded” adds a separate entry of the source.

Experiments:
[1] = test system: DU-145, human prostate cancer cell line; assay: Intracellular calcium measurement (fluo-3, confocal microscopy); format: cell-based; settings: for continuous increase of [Ca2+]i by KCl treatment: pretreatment with antagonist before KCl, FIG. 2B-D
Protocol: DU-145, human prostate cancer cell line, was pretreated with a regulator of intracellular calcium (Ca^2+) signaling second messenger, and the intracellular calcium signaling pattern thereof was analyzed. The concentration of intracellular calcium was measured by the following method: A cell suspension pretreated with a fluo-3 (molecular probe, USA) was titrated in a confocal dish (SPL, Seoul, Korea) coated with poly-L-lysine (Sigma-Aldrich, USA) and reacted for 20 minutes in a CO2 incubator to attach the cells. Then, the intracellular calcium amount was measured by a confocal microscopy system of Nikon Co, using the method of Tsien et al. (Tsien et al., Nature 295, 68-71 (1982)), and the results are illustrated in FIG. 2.

mouse sperms = assay: Sperm motility test (CASA) of sperms fused with prostasomes from PPECs; format: cell-based; settings: sperms fused with PPECs-derived prostasomes (with or without pretreatment of the prostate cells), vs no fusion; FIG. 5
Protocol: The prostasomes of the mouse were obtained by incising the mouse abdominal cavity and obtaining the prostate under the bladder through microsurgery (Drost et al, 2016, Nat Protoc. 11(2): 347-358). Later, the effluent from the prostate gland was collected from the prostate and diluted using BWW (Bigger, Whitten, arid Whittingham) medium [10 mM Hepes, 20 mM sodium lactate, 5 mM glucose, 0.25 mM sodium pyruvate, penicillin G (80 mg/L), streptomycin sulfate (50 mg/L), 95 mM NaCl, 4.8 mM KCl, 1.3 mM CaCl2, 1.2 mM KH2PO4, and 1.2 mM MgSO4 in 25 mM NaHCO3 buffer, pH 7.4]). The supernatant was used to collect prostasomes by the same method as described above.
To collect mouse sperms which are not fused with prostasomes, the tail epididymis of a male mouse was surgically removed, and blood and adipose tissue were removed using ophthalmic scissors. The epididymis was punctured with a 30 gauge sterilized needle and pinched by tweezers to release a large number of sperms. […]
Specifically, the isolated sperms were diluted with a weak alkaline buffer with 0.32 M sucrose or binding buffer 150 mM NaCl, 1 mM CaCl2, 1 mM MgCl2, 5 mM glucose with 2 mM Hepes (pH 8.0)/20 mM MES (pH 5.0, binding buffer). […] The sperm motility rate was measured using a computer assisted sperm analysis (CASA) device (IVOS, Hamilton Thorne Biosciences, USA). […]

[2] = test system: DU-145, human prostate cancer cell line; assay: Western blotting of prostasome (exosomal) marker proteins in prostasomes from culture supernatant; format: cell-based
Protocol: Specifically, the prostate cancer cell line DU-145 were cultured in DMEM (GIBCO/Invitrogen, USA) supplemented with 10% exosome-free FBS (GIBCO/Invitrogen, USA) and 1% antibiotics-antimycotic (GIBCO/Invitrogen, USA) under the conditions of 37° C. and 5% CO2. The cell culture was collected and centrifuged at 3,000 rpm for 30 minutes to separate the supernatant. The supernatant was centrifuged at 15,000×g for 20 minutes using a Beckman's high-speed centrifuge, and the supernatant was separated again. The supernatant was centrifuged at 105,000×g for 2 hours using a high-speed centrifuge to obtain a precipitate. The collected precipitate was resuspended in the same buffer. The first eluted fraction was collected using sephadex G-200 (Sigma, USA), centrifuged again, and then suspended for use. 20 μg of protein was inactivated in 5× sample buffer at 100° C. for 5 minutes and then electrophoresed on a 10% SDS polyacrylamide gel. The separated proteins were transferred to a PVDF membrane and blocked in 2% BSA for 90 minutes. The respective HSP70, β-actin, Rab5 and LAMP1 antibodies were placed overnight at 4° C. in a ratio of 1:1,000 and then washed three times for 10 minutes with tris-buffered saline Tween-20 (TBST) buffer. The secondary antibodies were diluted at a ratio of 1:1,000 and allowed to adhere at room temperature for 2 hours. The membranes washed three times for 15 minutes with TBST buffer were treated with ECL (Bio-Rad, USA), and the amount of the protein expression was measured with LAS-500 (GE Healthcare Life Science, USA). DU-145, prostate cancer cell line, was treated with KCl, which induces cell membrane depolarization. Western blotting was performed to identify changes in prostasome-related protein expression. Specifically, the cells were cultured with KCl at various concentrations (0, 5, 10, 25, 50 and 100 mM) for 1 hour, and prostasomes were prepared from the culture supernatant by the method described in Experimental Example 1 and subjected to Western blotting. Further, cells were cultured with 25 mM KCl for various times (0, 10, 30, 60, 120 and 180 minutes) and subjected to Western blotting. The results are illustrated in FIG. 1. Furthermore, DU-145, human prostate cancer cell line was pretreated with a regulator of intracellular calcium (Ca^2+) signaling second messenger to analyze the change in the prostasome-related protein expression. Specifically, DU-145 cells were treated with various antagonists (regulator of intracellular calcium signaling second messenger) such as 100 μg/ml heparin (selective IP3 receptor inhibitor), 50 μM 8-Br-cADPR (antagonist of cADPR) and 1 μM NED-19 (antagonist of NAADP) together with 25 mM KCl. Prostasomes were prepared from the culture supernatant by the method described in Experimental Example 1, and Western blotting was performed. All antagonists were preincubated for 30 minutes before KCl treatment, and the cells were cultured for an additional 1 hour after KCl treatment. The results are illustrated in FIG. 3. Capsaicin (Sigma Aldrich, Mo., USA), which induces intracellular calcium (Ca^2+) signaling, was used to confirm the change in prostasome-related protein expression according to capsaicin treatment in DU-145, human prostate cancer cell line by Western blot. Specifically, the cells were cultured with capsaicin at various concentrations (0, 12.5, 25, 50, 100 and 200 μM) for 3 hours, and prostasomes were prepared from the culture supernatant by the method described in Example 2 and subjected to Western blotting, The cells were also cultured with 50 μM capsaicin for various times (0, 10, 30, 60, […], 120 and 180 minutes) and subjected to Western blotting. The results are illustrated in FIG. 4.

mouse oocytes = assay: In vitro fertilization test; format: cell-based; settings: sperms fused with prostasomes obtained with or without pretreatment by regulator, reacted with oocytes, 36 hours; FIG. 6
Protocol: In order to perform the in vitro fertilization test, the method of Ren et al. (Ren et al., Nature 413, 603-609 (2001)) was modified and used. A 10 to 12-week-old female mouse was injected with pregnant mare serum gonadotropin (PMSG) (5 IU; Sigma-Aldrich). After 48 hours, the mouse was injected with human chorionic gonadotropin (hCG) (5 IU; Sigma-Aldrich). After 14 hours of the last injection, uterine tubes were removed and perfused with IVF medium (Medicult, USA), and flown oocytes were collected using a low magnification microscope.
The collected oocytes were resuspended in IVF medium and were cultured with prostasomes which were obtained in the presence or absence of the regulator of the intracellular calcium signaling second messenger, causing fertilization reaction. The heated mineral oil was overlaid on top of the medium to block the outside air. After 36 hours of the culture, the total number of oocytes contained in the culture medium was counted under a microscope, and cells above the two-cell stage were counted. The fertilization rate was calculated using the following formula. The case that the sperms that had undergone the same fusion process without prostasome treatment were cultured with about 15 oocytes was referred to as 100%. The results are illustrated in FIG. 6. […]

C57BL/6 mice = assay: In vivo fertilization test in mice (number of pups); design: species or system mouse; settings: male C57BL/6 mice, 50 mg/kg intraperitoneally twice daily for 2 weeks, then mating 1:1 for 48 hours; FIG. 7
Protocol: The number of pups was measured in the mouse breeding process to confirm the increase of reproductive ability due to the promotion of the prostasome secretion (Nambu University's animal test approval number #201604), 7-week-old male C57BL/6 mice were randomly assigned into three groups and adapted to the breeding conditions. The groups were divided into the normal untreated group, the solvent-[…] group, and the capsaicin-treated group. Capsaicin was prepared at a high concentration (100-fold) in DMSO, then diluted in phosphate buffered saline (PBS, pH 7.2), and used as an injection. In the solvent-treated group, PBS (200 μl) diluted with the same volume of DMSO was administered. Twice daily capsaicin (50 mg/kg) and placebo were intraperitoneally injected into each experimental group for 2 weeks. Then, each mouse was caged with a female c57BL/6 mouse adapted for the same breeding condition, mating them at a ratio of 1:1 for 48 hours. The mating started at 6 pm, and the mating success was evaluated by confirming that the plaque was formed at the vaginal entrance at 9:00 am, but it was maintained for 48 hours considering the possibility of premature dropping. Then, only the female was separated from each cage, and the separate breeding was performed for each group. After the gestation period (about 21 days), the number of pups was counted. […]

N=c1c2nc(Br)n3c2ncn1C1OC(COP(=O)(O)OP(=O)(O)OCC2OC3C(O)C2O)C(O)C1O (centres unmarked) [8-br-cADPR, 8-Br-cADPR]
continuous increase of [Ca2+]i by KCl treatment [1]: suppressed

O=P(O)(O)O[C@@H]1[C@H](O)[C@H](O)[C@@H](OP(=O)(O)O)[C@H](OP(=O)(O)O)[C@H]1O [D-myo-IP3, D-myo-Inositol 1,4,5-triphosphate]
sperm motility rate (mouse sperms): doubling; also recorded: doubled

[Cl-].[K+] [KCl]
intracellular calcium ([Ca2+]) ([1]; 120 μM KCl, FIG. 2A): rapidly increased
HSP70 expression ([2]; 25 mM KCl alone without an antagonist, 1 hour, FIG. 3): increased
protein expression of HSP70 and LAMP1 ([2]; 25 mM KCl for 0, 10, 30, 60, 120 and 180 minutes, FIG. 1B): increased in a time-dependent manner
protein expression of HSP70, Rab5 and LAMP1 (exosomal markers) ([2]; KCl 0, 5, 10, 25, 50 and 100 mM for 1 hour, FIG. 1A): increased in a concentration-dependent manner

COc1ccc([C@H]2N[C@H](C(=O)O)Cc3c2[nH]c2ccccc32)cc1CN1CCN(c2ccccc2F)CC1 [Ned-19]
continuous increase of [Ca2+]i by KCl treatment [1]: not suppressed
HSP70 expression (KCl-induced) with antagonist ([2]; 100 μg/ml heparin, 50 μM 8-Br-cADPR or 1 μM NED-19 preincubated 30 minutes, then 25 mM KCl 1 hour, FIG. 3): did not show the inhibitory effect

C1CCC[C@H]2CCCN3CC[C@@H](CCCCCC[C@@H]4CCCN5CC[C@@H](CC1)O[C@@H]45)O[C@@H]23 [Xestospongin C]
fertility (fertilization rate) (mouse oocytes): reduced to be similar to that of the negative control
continuous increase of [Ca2+]i by KCl treatment [1]: suppressed

COc1cc(CNC(=O)CCCC/C=C/C(C)C)ccc1O [capsaicin]
number of pups (C57BL/6 mice): increased
protein expression of HSP70, LAMP1 and Rab5 ([2]; 50 μM capsaicin for 0-180 minutes, FIG. 4B): increased in a time-dependent manner
protein expression of HSP70 ([2]; capsaicin 0, 12.5, 25, 50, 100 and 200 μM for 3 hours, FIG. 4A): increased in a concentration-dependent manner

heparin
fertility (fertilization rate) (mouse oocytes): reduced to be similar to that of the negative control
